How the values were obtained:
Format in all cases: cell-based
[1] = Plating efficiency (colony-forming ability) of normal human fibroblasts; details: hfl-1 cells, 24 hour incubation with drug, replated, colonies counted after 20 days, read-out: concentration of the drug causing 50% inhibition in plating efficiency
Protocol: HFL-1 cells (normal, human diploid lung fibroblasts) purchased from ATCC were plated after first passage at low density (2.0 x 10^5cells) per well (6 well dishes) in one ml of growth medium (DMEM completed with 10% fetal bovine serum and pen/strep). Twenty-four hours later, (E)-4-fluorostyryl-4-chlorobenzylsulfone was added to each well at the following final concentrations; 0 µM, 2.5. µM, 5.0 µM, 25 µM, 50 µM, and 75 µM. After a 24 hour incubation period, the wells were washed 3x with 5 ml normal growth medium and each well was trypsinized and cell counts were determined. To determine colony-forming ability, the cells from each treatment were then serial diluted and replated into 100mm dishes such that each group was split into 3 replating groups consisting of 10, 100, 200 cells per plate. The groups were plated in triplicate. The cells were incubated for 20 days under normal growth conditions and colonies were counted after staining with modified Wright stain (Sigma). The number of colonies from each plate in triplicate were determined and the average for each group was plotted. The concentration of the drug causing 50% inhibition in plating efficiency was calculated and found to be 70 µM.

[2] = tested on: HFL-1 cells; test: Protection of normal human fibroblasts from anticancer agent cytotoxicity (protection ratio, Trypan blue exclusion); details: 2.0 µM sulfone 24 hour preincubation, viable cells 96 hours after cytotoxic agent
Protocol: HFL-1 cells were plated at a cell density of 1.0 x 10^5 in 1 ml of medium. Twenty-four hours following plating, 2.0 µM of (E)-4-fluorostyryl-4-chlorobenzylsulfone was added to the medium. Following a 24 hour preincubation with the styryl sulfone, the various cytotoxic agents listed in Table 6 were added to the cells, at the concentrations given in Table 6. the number of viable cells was determined by Trypan blue exclusion using a hematocytometer 96 hours after exposure to cytotoxic agent. The "Protection Ratio" is the number of viable cells following treatment with (E)-4-fluorostyryl-4-chlorobenzylsulfone and cytotoxic agent, divided by the number of viable cells remaining after treatment with cytotoxic agent alone. A protection ratio of 2 or more is considered highly significant, while is protection ratio of 1.5-2 is considered less significant. […] Table 6: Protective Effect of (E)-4-Fluorostyryl-4-Chlorobenzylsulfone on HFL-1 Cells Treated with Cytotoxic Drugs

[3] = tested on: Normal human HFL-1 cells; test: Cytoprotection assay against paclitaxel; parameters: key: +: A compound was deemed to be active if the number of viable cells following the combination treatment was higher than the number of cells after treatment with paclitaxel alone; details: 2.0 or 10 µM sulfone; paclitaxel (250 nM) at time zero or 24 hours later; viable cells after 96 hours of paclitaxel
Protocol: The cytoprotective activity of the same styryl benzylsulfones was determined as follows. Normal human HFL-1 cells were plated at a cell density of 1.0 x 10^5 cells per well in six culture plates. Styryl benzylsulfone was added 24 hours later at a final concentration of either 2.0 or 10 µM. The time of styryl sulfone addition was designated as time zero. Paclitaxel (250 nM) was added at either time zero, or 24 hours after time zero. The total number of viable cells was determined, as described above, after 96 hours of paclitaxel treatment. A compound was deemed to be active if the number of viable cells following the combination treatment was higher than the number of cells after treatment with paclitaxel alone. Table 7: Antitumor and Cytoprotective Effect of Styryl Sulfones

O=S(=O)(/C=C/c1ccc(F)cc1)Cc1ccc(Cl)cc1 [Example 7, (E)-4-fluorostyryl-4-chlorobenzyl sulfone]
CC50 at 24 h [1]: 70 µM | Protection Ratio ([2]; 5-fluorouracil 20 µM (DNA antimetabolite)): 1.3 | Protection Ratio ([2]; camptothecin 0.5 µM (topoisomerase I inhibitor)): 2.1 | Protection Ratio ([2]; cisplatin 5.0 µM (alkylating agent)): 1.3 | Protection Ratio ([2]; doxorubicin 0.4 µM (topoisomerase II inhibitor)): 1.5 | Protection Ratio ([2]; etoposide 3.0 µM (topoisomerase II inhibitor)): 3.5 | Protection Ratio ([2]; mitoxantrone 0.3 µM (topoisomerase II inhibitor)): 2.0 | Protection Ratio ([2]; paclitaxel 0.25 µM (antimitotic)): 2.5 | Protection Ratio ([2]; vincristine 0.25 µM (antimitotic)): 3.0 | Cytoprotection [3]: +

O=S(=O)(/C=C/c1ccc(Cl)cc1)Cc1ccc(Cl)cc1 [Example 8, (E)-4-chlorostyryl-4-chlorobenzyl sulfones]
Cytoprotection [3]: +

O=S(=O)(/C=C/c1ccc(F)cc1Cl)Cc1ccc(Cl)cc1 [Example 9, (E)-2-chbro-4-fluorostryryl4-chlorobenzl sulfone]
Cytoprotection [3]: +

O=C(O)c1ccc(/C=C/S(=O)(=O)Cc2ccc(Cl)cc2)cc1 [Example 10, (E)-4-carboxystyryl-chlorobenzyl sulfone]
Cytoprotection [3]: +

O=S(=O)(/C=C/c1ccc(F)cc1)Cc1ccc(Cl)cc1Cl [Example 11, (E)-4-fluorostyryl-2,4-dichlorobenzyl sulfone]
Cytoprotection [3]: +

O=C(C(=Cc1ccc(F)cc1)S(=O)(=O)c1ccccc1)c1ccccc1 [Example 12, 2-(phenylsulfonyl)-1-phenyl-3-(4-fluorophenyl)-2-propen-1-one]
Cytoprotection [3]: +
